Assay results from PubChem BioAssay AID504778 (National Center for Advancing Translational Sciences (NCATS), 2011).

Tested on: Caco-2 monolayer, B->A permeability, LC-MS/MS
Test: Enhancers of SMN2 Splice Variant Expression: Caco-2 Permeability Profiling
Conditions: hits give high values
Text: Spinal muscular atrophy (SMA) is caused by insufficient levels of the survival motor neuron protein SMN. The SMN locus on chromosome 5q13 contains two inverted copies of SMN called SMN1 and SMN2 which are 99% identical at the amino acid level. SMN1 is a fully functional protein and SMN2 skips exon 7 90% of the time. Skipping of exon 7 produces non-functional protein product. 10% of the SMN2 protein includes exon 7 and is fully functional. In the SMA disease state, mutations in the SMN1 locus are the cause of the disease state. Because only 10% of SMN2 is of the fully functional form, it is not sufficient to overcome the deficiency produced by the loss of the SMN1 product. A therapy that either increase the amount of SMN2 product made or to increase the inclusion of exon 7 has been proposed for the treatment of SMA. After screening and medicinal chemistry efforts a probe was identified and is further characterized in this in vitro ADME assay. This Caco-2 permeability assay predicts the in vivo absorption of the lead across the intestinal lining by using a Caco-2 cell line and measuring the lead's rate of transport […]. […] NIH Chemical Genomics Center [NCGC] NIH Molecular Libraries Probe Production centers Network [MLPCN] […]
1. […] The T0, LY and T90, LY plates are read by FlexStation 3 at excitation of 485 nm and emission of 535 nm to determine LY permeability. […]

Structure (SMILES): O=C(O)C1CCN(c2nc(-c3ccc(Br)cc3)cs2)CC1
- Papp B->A: 12 10^-6 cm/s
